{"source": "paper PMC6441019", "about": "“Prospective discovery of small molecule enhancers of an E3 ligase-substrate interaction” (Nature Communications, 2019)", "key": {"[1]": {"target": "T1, pSer33/S37A β-catenin peptide binding to β-TrCP (Homo sapiens, UniProt P35222+Q9Y297, S37A)", "T1 construct": "titrating BODIPY-FL-labeled β-catenin peptides (residues 17-48) against 300 pM β-TrCP; 6xHis-SMT3 (N, cleaved yes); made in house; host or cells: E. coli (co-expressed with BirA)", "T1 sequence (Q9Y297 1-569 isoform Q9Y297-2, stated change not applied)": "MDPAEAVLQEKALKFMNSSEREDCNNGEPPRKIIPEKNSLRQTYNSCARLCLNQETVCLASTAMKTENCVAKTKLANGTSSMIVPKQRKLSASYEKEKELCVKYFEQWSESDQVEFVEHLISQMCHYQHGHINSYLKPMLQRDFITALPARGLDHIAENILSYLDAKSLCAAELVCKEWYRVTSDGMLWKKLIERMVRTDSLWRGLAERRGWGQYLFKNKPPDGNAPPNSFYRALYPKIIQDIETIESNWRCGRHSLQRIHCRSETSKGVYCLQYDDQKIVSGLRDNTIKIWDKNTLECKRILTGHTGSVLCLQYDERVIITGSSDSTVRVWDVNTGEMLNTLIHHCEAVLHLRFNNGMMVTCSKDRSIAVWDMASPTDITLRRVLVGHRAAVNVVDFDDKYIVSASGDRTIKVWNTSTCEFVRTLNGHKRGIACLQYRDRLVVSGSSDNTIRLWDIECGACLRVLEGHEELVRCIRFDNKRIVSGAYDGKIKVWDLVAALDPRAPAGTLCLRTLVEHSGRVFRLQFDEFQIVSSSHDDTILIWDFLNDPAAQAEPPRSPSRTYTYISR", "T1 sequence (P63208 whole entry partner, the tested form may be a part)": "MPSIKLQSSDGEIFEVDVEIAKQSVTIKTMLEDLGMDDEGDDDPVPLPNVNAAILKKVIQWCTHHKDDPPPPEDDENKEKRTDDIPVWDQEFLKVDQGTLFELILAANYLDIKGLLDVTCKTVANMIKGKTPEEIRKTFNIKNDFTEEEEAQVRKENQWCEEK", "T1 sequence (P35222 17-48 S37A limits assumed)": "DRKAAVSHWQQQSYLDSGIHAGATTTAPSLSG", "experiment": "TR-FRET binding enhancement assay, pSer33/S37A peptide", "protocol": "(§1) Compounds were incubated in a 20 μl reaction volume with 300 pM biotinylated β-TrCP/Skp1 preincubated with 1.2 nM terbium-coupled streptavidin (Cisbio) and BODIPY-FL labeled β-catenin peptides (see figure legends for peptide details) in a white 384-well microplate (Perkin Elmer ProxiPlate), using a PBS buffer containing 0.01% Triton X-100 and 2 mM DTT with 2% final DMSO. […] Following 1-h incubation, plates were read for TR-FRET signal after excitation at 320 nm and read at 520 and 620 nm using an EnVision plate reader (Perkin Elmer). TR-FRET signal was calculated using a 520/620 nm ratio. Binding and enhancement data were fit to a standard Hill equation (Y = Bmin + (Bmax − Bmin)(X^h)/(X^h + EC50^h)) in Prism (GraphPad). Errors are standard error of the fit."}, "[2]": {"target": "T2, pSer33/Ser37 β-catenin:β-TrCP interaction (Homo sapiens, UniProt P35222+Q9Y297)", "T2 construct": "titrating BODIPY-FL-labeled β-catenin peptides (residues 17-48) against 300 pM β-TrCP; 6xHis-SMT3 (N, cleaved yes); made in house; host or cells: E. coli (co-expressed with BirA)", "experiment": "TR-FRET binding enhancement assay, pSer33/Ser37 peptide", "protocol": "as §1"}, "[3]": {"target": "T3, pSer33/Ser37 β-catenin peptide binding to β-TrCP (Homo sapiens, UniProt P35222+Q9Y297)", "T3 construct": "titrating BODIPY-FL-labeled β-catenin peptides (residues 17-48) against 300 pM β-TrCP; 6xHis-SMT3 (N, cleaved yes); made in house; host or cells: E. coli (co-expressed with BirA)", "T3 sequence (Q9Y297 1-569 isoform Q9Y297-2)": "as the sequence (Q9Y297 1-569 isoform Q9Y297-2, stated change not applied) above", "T3 sequence (P63208 whole entry partner, the tested form may be a part)": "as the sequence (P63208 whole entry partner, the tested form may be a part) above", "T3 sequence (P35222 17-48 limits assumed)": "as the sequence (P35222 17-48 S37A limits assumed) above, with A21S counted along it", "experiment": "TR-FRET peptide binding and cooperativity assay, pSer33/Ser37 peptide", "details": "ratio of peptide KD without and with saturating enhancer; pSer33/Ser37", "protocol": "as §1"}, "[4]": {"target": "T4, pSer33/Ser37 β-catenin peptide ubiquitylation by SCFβ-TrCP (Homo sapiens, UniProt P35222+Q9Y297)", "T4 construct": "fluorescently-labeled β-catenin peptide (residues 17–60) were ubiquitylated; 6xHis-SMT3 (N, cleaved yes); made in house; host or cells: E. coli (β-TrCP1/Skp1); E. coli or SF9 (Cul1-Rbx1)", "T4 sequence (Q9Y297 1-569 isoform Q9Y297-2)": "as the sequence (Q9Y297 1-569 isoform Q9Y297-2, stated change not applied) above", "T4 sequence (P63208 whole entry partner, the tested form may be a part)": "as the sequence (P63208 whole entry partner, the tested form may be a part) above", "T4 sequence (Q13616 whole entry partner, the tested form may be a part)": "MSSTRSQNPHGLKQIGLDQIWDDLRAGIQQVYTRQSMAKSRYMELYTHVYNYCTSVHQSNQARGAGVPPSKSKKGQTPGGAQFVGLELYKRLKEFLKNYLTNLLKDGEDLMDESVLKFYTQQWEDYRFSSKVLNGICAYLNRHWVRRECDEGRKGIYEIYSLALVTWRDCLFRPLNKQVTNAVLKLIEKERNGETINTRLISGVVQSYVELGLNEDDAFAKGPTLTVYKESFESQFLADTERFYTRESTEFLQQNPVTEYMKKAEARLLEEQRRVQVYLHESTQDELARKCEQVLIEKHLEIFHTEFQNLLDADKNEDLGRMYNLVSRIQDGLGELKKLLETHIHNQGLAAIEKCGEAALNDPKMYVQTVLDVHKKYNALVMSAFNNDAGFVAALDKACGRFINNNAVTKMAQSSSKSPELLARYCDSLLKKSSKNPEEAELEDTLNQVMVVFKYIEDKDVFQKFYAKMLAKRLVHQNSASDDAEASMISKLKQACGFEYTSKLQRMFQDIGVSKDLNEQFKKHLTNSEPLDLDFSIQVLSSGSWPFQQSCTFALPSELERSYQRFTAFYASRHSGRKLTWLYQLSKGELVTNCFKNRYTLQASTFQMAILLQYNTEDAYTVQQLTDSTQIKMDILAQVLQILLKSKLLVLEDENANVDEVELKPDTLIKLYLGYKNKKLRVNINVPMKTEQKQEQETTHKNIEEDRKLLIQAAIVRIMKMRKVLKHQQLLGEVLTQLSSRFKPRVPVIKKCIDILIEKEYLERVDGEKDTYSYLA", "T4 sequence (P62877 whole entry partner, the tested form may be a part)": "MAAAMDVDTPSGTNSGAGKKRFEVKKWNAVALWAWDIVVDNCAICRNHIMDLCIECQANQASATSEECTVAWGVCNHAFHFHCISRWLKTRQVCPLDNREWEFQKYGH", "T4 sequence (Q15843 1-76 partner limits assumed)": "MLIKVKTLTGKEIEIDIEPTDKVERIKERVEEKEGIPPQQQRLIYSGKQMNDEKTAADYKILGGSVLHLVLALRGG", "T4 sequence (P35222 17-60 limits assumed)": "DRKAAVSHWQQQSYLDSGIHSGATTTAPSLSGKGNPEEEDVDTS", "experiment": "In vitro ubiquitylation of pSer33/Ser37 β-catenin peptide", "format": "biochemical", "protocol": "(§2) Four micromolar of fluorescently-labeled β-catenin peptide (residues 17–60) were ubiquitylated in a buffer containing 25 mM Tris Cl (pH 7.5), 50 mM NaCl, 5 mM MgCl2, 2 mM ATP, and 1 mM DTT at room temperature in the presence of 62.5 μM Ubiquitin, 125 nM Ube1, 1.75 μM Cdc34A, and 100 nM neddylated SCF^β-TrCP in the presence or absence of compound (as indicated). Typically, individual reaction mixes with either Ubiquitin, Ube1 and Cdc34A or β-catenin, SCF^β-TrCP and compound were preincubated and subsequently mixed to initiate β-catenin ubiquitylation. Reactions were quenched by SDS loading buffer, resolved by SDS-PAGE and imaged for fluorescence. For full length β-catenin protein ubiquitylation 400 nM β-catenin and 400 nM SCF^β-TrCP were used instead."}, "[5]": {"target": "T5, full-length S33E/S37A β-catenin protein ubiquitylation by SCFβ-TrCP (Homo sapiens, UniProt P35222+Q9Y297, S33E/S37A)", "T5 construct": "6xHis-SMT3 (N, cleaved yes); host or cells: HEK293T (β-catenin); E. coli (β-TrCP1/Skp1); E. coli or SF9 (Cul1-Rbx1)", "experiment": "In vitro ubiquitylation of full-length S33E/S37A β-catenin protein", "format": "biochemical", "details": "20 μM compound", "protocol": "as §2"}, "[6]": {"target": "T6, S33E/S37A β-catenin peptide binding to β-TrCP (Homo sapiens, UniProt P35222+Q9Y297, S33E/S37A)", "T6 construct": "titrating BODIPY-FL-labeled β-catenin peptides (residues 17-48) against 300 pM β-TrCP; 6xHis-SMT3 (N, cleaved yes); made in house; host or cells: E. coli (co-expressed with BirA)", "T6 sequence (Q9Y297 1-569 isoform Q9Y297-2, stated change not applied, one chain of several)": "as the sequence (Q9Y297 1-569 isoform Q9Y297-2, stated change not applied) above", "T6 sequence (P63208 whole entry partner, one chain of several, the tested form may be a part)": "as the sequence (P63208 whole entry partner, the tested form may be a part) above", "experiment": "TR-FRET binding enhancement assay, S33E/S37A peptide", "details": "1% binding saturation", "protocol": "as §1"}, "[7]": {"target": "T6, S33E/S37A β-catenin peptide binding to β-TrCP", "experiment": "TR-FRET peptide binding assay, S33E/S37A peptide", "details": "read-out: binding affinity of S33E/S37A peptide", "protocol": "as §1"}, "[8]": {"target": "T7, pSer33/S37A β-catenin peptide ubiquitylation by SCFβ-TrCP (Homo sapiens, UniProt P35222+Q9Y297, S37A)", "T7 construct": "fluorescently-labeled β-catenin peptide (residues 17–60; as indicated) was ubiquitylated; 6xHis-SMT3 (N, cleaved yes); made in house; host or cells: E. coli (β-TrCP1/Skp1); E. coli or SF9 (Cul1-Rbx1)", "experiment": "In vitro ubiquitylation of pSer33/S37A β-catenin peptide", "format": "biochemical", "protocol": "as §2"}, "[9]": {"target": "T1, pSer33/S37A β-catenin peptide binding to β-TrCP", "experiment": "TR-FRET peptide binding and cooperativity assay, pSer33/S37A peptide", "protocol": "as §1"}, "[10]": {"target": "T8, S33E/S37A β-catenin peptide ubiquitylation by SCFβ-TrCP (Homo sapiens, UniProt P35222+Q9Y297, S33E/S37A)", "T8 construct": "fluorescently-labeled S33E/S37A β-catenin peptide (residues 17–60) was ubiquitylated; 6xHis-SMT3 (N, cleaved yes); made in house; host or cells: E. coli (β-TrCP1/Skp1); E. coli or SF9 (Cul1-Rbx1)", "experiment": "In vitro ubiquitylation of S33E/S37A β-catenin peptide", "format": "biochemical", "details": "20 μM compound", "protocol": "as §2"}, "β-TrCP": {"target": "T9, β-TrCP (Homo sapiens, UniProt Q9Y297)", "T9 construct": "6xHis-SMT3 (N, cleaved yes); made in house; host or cells: E. coli (co-expressed with BirA)", "T9 sequence (Q9Y297 1-569 isoform Q9Y297-2)": "as the sequence (Q9Y297 1-569 isoform Q9Y297-2, stated change not applied) above", "T9 sequence (P63208 whole entry partner)": "as the sequence (P63208 whole entry partner, the tested form may be a part) above", "experiment": "TR-FRET peptide binding in absence of compound", "protocol": "as §1"}}, "note": "Where no end group is shown, it is not given here."}
{"compound": "O=C(O)c1cccc(NC(=O)c2c(Oc3ccccc3)cc(C(F)(F)F)[nH]c2=O)c1", "note": "[NRX-2663]", "values": [{"measurement": "EC50", "setting": "[1]", "value": "22.9 ± 1.4", "unit": "µM"}, {"measurement": "EC50", "setting": "[2]", "value": "80 ± 4", "unit": "µM"}, {"measurement": "cooperativity of binding", "setting": "[3]", "value": 13, "unit": "fold"}, {"measurement": "ligand concentration at which ubiquitin chain formation resembles WT pSer33/pSer37 peptide", "setting": "[4]", "value": "≥ 16", "unit": "μM"}, {"measurement": "enhancement of ubiquitylation of pSer33/Ser37 β-catenin peptide", "setting": "[4]; peptide residues 17–60", "value": "markedly enhances"}]}
{"compound": "O=C(O)c1cccc(NC(=O)c2c(Sc3c(Cl)cccc3Cl)cc(C(F)(F)F)[nH]c2=O)c1", "note": "[NRX-103094]", "values": [{"measurement": "ubiquitylation of full-length S33E/S37A β-catenin protein", "setting": "[5]", "value": "strongly ubiquitylated"}, {"measurement": "EC50", "setting": "[6]", "value": "3.9 ± 0.1", "unit": "µM"}, {"measurement": "Kd", "setting": "[7]", "value": 0.022, "unit": "µM"}, {"measurement": "concentration giving ubiquitylation greater than WT pSer33/pSer37 levels", "setting": "[8]", "value": 250, "unit": "nM"}, {"measurement": "cooperativity of peptide binding to β-TrCP", "setting": "[9]", "value": 1000, "unit": "fold"}, {"measurement": "ubiquitylation of S33E/S37A β-catenin peptide", "setting": "[10]", "value": "robust time-dependent ubiquitylation"}]}
{"compound": "Ac-CDRKAAVSHWQQQSYLDEGIHAGATTTAPSLSG [S33E/S37A]", "values": [{"measurement": "decrease in binding affinity relative to pSer33/S37A peptide", "setting": "β-TrCP", "value": "> 10", "unit": "fold"}]}
